Holding throughout (format): binding
In assay [1] the test system is calf thymus DNA (hybrid DNA). The assay is described as follows: Detection of hybrid DNA fragment using fluorescent intercalator (fluorometry). The following applies: intercalator 1 M; calf thymus DNA 100 μM; 5 mM phosphate buffer pH 7.0, sodium sulfate 5 mM; excitation 434 nm. On the procedure: (§1) The fluorescent intercalator (1 M) prepared above was placed in an aqueous 5 mM phosphate buffer solution (pH 7.0) containing a calf thymus DNA (hybrid DNA, 100 μM) and sodium sulfate (5 mM). In the buffer solution, the fluorescent intercalator was intercalated into the hybrid DNA. The fluorescence emitted by the buffer solution containing the hybrid DNA having the intercalated fluorescent intercalator was fluorometrically measured in the wavelength region of 440 to 600 nm by exciting with a light of 434 nm.
(§2) The fluorescence emitted by the same buffer solution containing no calf thymus DNA (i.e., hybrid DNA) was also measured in the same manner.

Assay [2] concerns single stranded DNA (calf thymus DNA heated to 90° C. for 20 min.). The assay is described as follows: Rate of dissociation of intercalator from single stranded DNA. The following applies: determined in the same manner as in Example 1 (SDS 0.5 vol. %). On the procedure: (§3) To the buffer solution containing hybrid DNA and intercalator which was employed above was added an aqueous sodium dodecylsulfate (SDS) solution to give a final SDS concentration of 0.5 vol. %. After the SDS solution was added, variation of the fluorescence strength at a lapse of time was measured. From the variation data, the dissociation rate was determined. The dissociation rate was 0.02/sec.
(§4) The same calf thymus DNA (hybrid DNA) as employed in Example 1 was heated to 90° C. for 20 min., to give a single stranded DNA.
(§5) The procedures of Example 1 were repeated using thus prepared single stranded DNA in place of the hybrid DNA.

In assay [3] the test system is calf thymus DNA (hybrid DNA). Put plainly: Rate of dissociation of intercalator from hybrid DNA (SDS addition, fluorescence over time). The following applies: SDS final concentration 0.5 vol. %; same buffer solution as the fluorescence test. On the procedure:
as §3

Assay [4] concerns single stranded DNA (calf thymus DNA heated to 90° C. for 20 min.). The assay is described as follows: Fluorometry with single stranded DNA in place of hybrid DNA. The following applies: procedures of Example 1, excitation 434 nm. As to the method:
as §1, §2, §4, §5

The values below come from patent US6506567B2, “Water-soluble flourescent intercalator compound” (Fuji Photo Film Co., Ltd., priority 2000, dated 2003).

For the compound “N-{3-[4-(3-( 6-chloro-9-imino-2-methoxyacridinyl)propyl)-1,4-diazacyclohexyl]propyl}-N′-{3-[4-(3-aminopropyl)-1,4-diazacyclohexyl]propyl}naphthalenediimide”, in assay [1], the “fluorescence strength at 475 nm, buffer solution containing hybrid DNA relative to buffer solution containing no hybrid DNA” value is recorded as “approx. 30 times”. Besides, in assay [2], the “dissociation rate from single stranded DNA” value was determined as 1.2 s⁻¹. Further, the “dissociation rate from hybrid DNA” value in assay [3] is 0.02 s⁻¹. In addition, in assay [4], the “fluorescence strength at 475 nm, buffer solution containing single stranded DNA relative to buffer solution containing no single stranded DNA” value is “approx. 16 times”.

For `COc1ccc2nc3cc(Cl)ccc3c(N)c2c1` [9-amino-6-chloro-2-methoxyacridine, reference compound], in assay [1], the “fluorescence strength at 475 nm, buffer solution containing hybrid DNA relative to buffer solution containing no hybrid DNA” value is “approx. 6 times”. Besides, the “dissociation rate from hybrid DNA” value in assay [3] came out at 19.0 s⁻¹.

Consider “N,N-bis{3-[4-(3-(6-chloro-9-imino-2-methoxyacridinyl)propyl)-1,4-diazacyclohexyl]propyl}naphthalenediimide”, for which the “fluorescence strength at 475 nm, buffer solution containing hybrid DNA relative to buffer solution containing no hybrid DNA” value in assay [1] was “not high”.
